Measured values taken from PMC9697330, “Co-Delivery of 8-Hydroxyquinoline Glycoconjugates and Doxorubicin by Supramolecular Hydrogel Based on α-Cyclodextrin and pH-Responsive Micelles for Enhanced Tumor Treatment” (Pharmaceutics, 2022).
Like-named read-outs stand apart in the source and are kept apart here.

Key:
[1] = tested on: NHDF-Neo (Normal Human Dermal Fibroblasts-Neonatal); assay: MTT assay, cytotoxicity against NHDF-Neo cells; type: cell-based
Text: (§1) The human breast adenocarcinoma cell line (MCF-7) was received from collections at the Maria Skłodowska-Curie Memorial Cancer Center and Institute of Oncology (Gliwice, Poland). The Normal Human Dermal Fibroblasts—Neonatal (NHDF-Neo) were purchased from LONZA (Cat. No. CC-2509, Lonza, Poland). The culture media consisted of DMEM + F12 medium, with 5% antibiotics (penicillin and streptomycin) and 10% fetal bovine serum. The culture media was bought from HyClone. Fetal bovine serum (FBS) was purchased from Eurx, Poland. Antibiotic Antimycotic Solution (100×) was purchased from Sigma-Aldrich, Germany.
(§2) The cytotoxicity of blank and drug-loaded SMH were evaluated using the MTT assay (Merck, Darmstadt, Germany). Briefly, human breast adenocarcinoma (MCF-7) or Normal Human Dermal Fibroblasts-Neonatal (NHDF-Neo) cells were seeded into 96-well plates at a concentration of 5 × 10^3 per well. The cell cultures were incubated for 24 h at 37 °C in a humidified atmosphere of 5% CO2. Afterward, the culture medium was removed, replaced with tested formulations, in a medium with varying concentrations, and incubated further for 24, 48, or 72 h, respectively. After that, the medium was removed and the MTT solution was added (0.5 mg·mL^−1 in PBS). After three hours of incubation, the MTT solution was taken off and the precipitated formazan was dissolved in dimethylsulfoxide. The absorbance was measured at 570 nm using a plate reader (Epoch, BioTek, Winooski, VT, USA). The experiments were performed in at least three independent repetitions, with four technical repeats for each tested concentration. The IC50 values were calculated using CalcuSyn software (ver. 2.0, Biosoft, Cambridge, UK). The IC50 parameter was defined as the compound concentration that was necessary to reduce the proliferation of cells to 50% of the untreated control. The results are presented as average values with standard deviations. […] Values of CI < 1 represent synergism; CI = 1 represents an additive interaction (i.e., no interaction); and CI > 1 represents antagonism.

[2] = tested on: MCF-7 (human breast adenocarcinoma cell line); assay: MTT assay, cytotoxicity against MCF-7 cells; type: cell-based
Text: as §1, §2

[3] = NMR titration for host-guest inclusion complex of 8HQ-Glu with α-CD; type: physicochemical; conditions: D2O, α-CD 10 mM, 8HQ-Glu 1 to 20 mM, 24 h at rt
Procedure: SMHs were prepared based on the host–guest interaction between the PEG chains of mPEG-b-PKPC or mPEG-b-PTMC micelles and α-CD. Typically, the lyophilized micelles were resuspended (15 mg·mL^−1) in PBS at pH 7.4, as a hydrogel precursor. Then, the same volume of 12% solution of α-CD in PBS was added to the micelle solution. The mixture was vortexed for 1 min followed by sonication for 1 min. The resultant mixture was allowed to stand still overnight for solidification. Firstly, gelation was visually observed by a simple vial inversion method. […] Thus, SMHs obtained (mPEG-b-PKPC^SMH or mPEG-b-PTMC^SMH) were used for characterization studies without any further modification. The transmittance of the α-CD and mPEG-b-PKPC^mic solution, measured at predetermined time intervals at 650 nm, immediately after mixing, was studied using a UV-Vis spectrophotometer JASCO V-570 (Tokyo, Japan). To confirm the formation of supramolecular hydrogels, the samples of mPEG5k, α-CD, mPEG-b-PKPC, or mPEG-b-PTMC, the lyophilized mPEG-b-PKPC^mic, or mPEG-b-PTMC^mic, the physical mixture of α-CD with the respective micelles, and freeze-dried SMHs were studied using the X-ray diffraction method (XRD). […] The samples were incubated for 24 h at rt with gentle shaking and the NMR spectra were measured.

COc1cccc2c1C(=O)c1c(O)c3c(c(O)c1C2=O)C[C@@](O)(C(=O)CO)C[C@@H]3O[C@H]1C[C@H](N)[C@H](O)[C@H](C)O1 [DOX, doxorubicin]
IC50 ([1]; 24 h incubation, read-out: Activity IC50, as DOX concentration): > 20 µM
IC50 ([1]; 48 h incubation, read-out: Activity IC50, as DOX concentration): 9.8 µM
IC50 ([1]; 72 h incubation, read-out: Activity IC50, as DOX concentration): 0.39 µM
IC50 ([2]; MCF-7, 24 h incubation, read-out: Activity IC50, as DOX concentration): 8.73 µM
IC50 ([2]; MCF-7, 48 h incubation, read-out: Activity IC50, as DOX concentration): 0.81 µM
IC50 ([2]; MCF-7, 72 h incubation, read-out: Activity IC50, as DOX concentration): 0.15 µM

OC1O[C@H](Cn2cc(COc3cccc4cccnc34)nn2)[C@@H](O)[C@H](O)[C@H]1O (stereo partly drawn) [8HQ-Glu, 6-(4-(8-quinolinyloxymethyl)-1H-1,2,3-triazol-1-yl)-6-deoxy-D-glucopyranose]
IC50 ([1]; Homo sapiens, 24 h incubation, read-out: Activity IC50, as 8HQ-Glu concentration): > 200 µM
IC50 ([1]; Homo sapiens, 48 h incubation, read-out: Activity IC50, as 8HQ-Glu concentration): > 200 µM
IC50 ([1]; Homo sapiens, 72 h incubation, read-out: Activity IC50, as 8HQ-Glu concentration): > 200 µM
IC50 ([2]; Homo sapiens, MCF7, MCF-7, 24 h incubation, read-out: Activity IC50, as 8HQ-Glu concentration): 168 µM
IC50 ([2]; Homo sapiens, MCF7, MCF-7, 48 h incubation, read-out: Activity IC50, as 8HQ-Glu concentration): 128 µM
IC50 ([2]; Homo sapiens, MCF7, MCF-7, 72 h incubation, read-out: Activity IC50, as 8HQ-Glu concentration): 55.3 µM
Host-guest inclusion complex formation with α-CD (in words) [3]: no inclusion complex formation
